Earlier results in publication PMC10010621, “ATP binding by an F1Fo ATP synthase ε subunit is pH dependent, suggesting a diversity of ε subunit functional regulation in bacteria” (Frontiers in Molecular Biosciences, 2023).

How the values were obtained:
[1] = target: Bacillus PS3 ε subunit; details: isolated ε subunit; ref Kato et al., 2007; read-out: Kd (ATP binding affinity)
[2] = target: εR103A/εR115A double-mutant ε subunit of Bacillus PS3; parameters: method as in Kato-Yamada, 2016; details: ref Kato-Yamada, 2016, read-out: ATP binding affinity
[3] = target: Bacillus subtilis ε subunit; parameters: method as in Kato-Yamada, 2005; Krah et al., 2021; details: isolated ε subunit; ref Kato-Yamada, 2005; Krah et al., 2021; read-out: Kd (ATP binding affinity)
[4] = test system: B. subtilis ε subunit εE102A; parameters: method as in Krah et al., 2021; details: εE102A versus wild-type; ref Krah et al., 2021
[5] = test system: B. subtilis ε subunit εE102R; parameters: method as in Krah et al., 2021; details: εE102R versus wild-type; ref Krah et al., 2021
[6] = test system: Escherichia coli ε subunit; parameters: method as in Yagi et al., 2007; details: isolated ε subunit; ref Yagi et al., 2007; read-out: Kd (ATP binding affinity)
[7] = test system: ε subunit of M. tuberculosis; parameters: method as in Biukovic et al., 2013; details: at the conditions measured; ref Biukovic et al., 2013
[8] = test system: C. thermarum ε subunit NTH mutant (εD89A, εR92A); parameters: method as in Ferguson et al., 2016; details: F1 domain, ref Ferguson et al., 2016
[9] = parameters: method as in Tanokura et al., 1976; details: solution phase; ref Tanokura et al., 1976

Row | Compound | Kd [1] | Kd [2] | Kd [3] | increase in ATP binding affinity [4] | increase in ATP binding affinity [5] | Kd [6] | ATP binding [7] | ATP binding [8] | pKa of the imidazole group [9]
1 | Nc1ncnc2c1ncn2[C@@H]1O[C@H](COP(=O)(O)OP(=O)(O)OP(=O)(O)O)[C@@H](O)[C@H]1O [ATP] | 0.0043 mM | 52 nM | 2.1 mM | ~10 fold | ~54 fold | 22 mM | did not bind to ATP | lack of ability to bind ATP | –
2 | N[C@@H](Cc1c[nH]cn1)C(=O)O [histidine] | – | – | – | – | – | – | – | – | 6.0–6.5
